Test results reported in paper PMC9570207, “Pharmacokinetics of Myo-Inositol in a Wistar Rat Animal Model” (International Journal of Molecular Sciences, 2022).
Where two headings read alike, the source gives them in different places. Each block holds one compound with its values, some of them ahead of it.

What was measured:
systolic blood pressure = test system: systolic blood pressure; design: method as in PMID 33113433; conditions: 3 mg/kg, Wistar rats; cited from earlier work
[1] = test system: angiotensin-converting enzyme; design: method as in PMID 33113433; conditions: cited from earlier work
[2] = rat, in vivo, po, 25 mg/kg; cited from earlier work
[3] = Pharmacokinetics of myo-inositol in serum after oral gavage, one-compartment PK model; type: in vivo, Wistar rat; conditions: 2 g/kg oral
Protocol: The experiment was performed on male Wistar rats (n = 9). We used male Wistar rats in our study because hormone changes throughout the female estrus cycle may have caused female rats to react differently, making them unpredictable and providing variable results during repeated experiments. All rats were 6 weeks old and had no morphological features deviating from the standard Wistar animal model. Animals were housed in a temperature-controlled room with a 12 h light/dark cycle and free access to water and food. The study was conducted in compliance with the Local Ethics Committee for Animal Experiments in Olsztyn. Each animal received a solution of myo-inositol (2 g/kg) in distilled water by oral gavage (Agnthos, curved gastric probe, 16G, 3 mm, 75 mm tip). The animals were fasted before the administration of myo-inositol (12 h since the last meal). Food was allowed for 2 h after administration of the compound. Access to water was unlimited. In order to reduce the amount of blood collected from a single animal, the animals were divided into three groups (n = 3).
For removing of proteins, 160 μL of acetonitrile (containing […] of xylitol, as an internal standard) was added to 50 μL of rat plasma and the sample was shaken for 5 min (1300 rpm, Vortex Genie 2, Scientific Industries, Bohemia, NY, USA). After centrifugation (20,000× g at 4 °C for 10 min), the supernatant was transferred into glass chromatographic vials and concentrated in a speed vacuum evaporator to dryness. Dry residues were derivatized with a mixture of trimethylsilylimidazole (TMSI) and pyridine (1:1, v/v). TMS-derivatives of myo-inositol were analyzed by the high-resolution gas chromatography method on a gas chromatograph GC2010Plus (Shimadzu, Tokyo, Japan) with a capillary column ZEBRON ZB-1 (15 m length, 0.25 mm diameter and 0.1 μm film thickness, Phenomenex, Torrance, CA, USA). The injector temperature was 325 °C and the initial column oven temperature was 150 °C. Helium was used as a carrier gas (at a flow rate of 1.18 mL min^−1). Afterwards, the sample injection (1 μL, in a split ratio 10:1) was ramped sequentially to 200 °C at a rate of 20 °C min^−1, to 300 °C at 30 °C min^−1 and to 335 °C at 20 °C min^−1. The final temperature was held for 2.42 min and the total time of analysis was 10 min. The detector was maintained at 350 °C. Myo-inositol was quantified by using the standard: myo-inositol from Sigma. The content of myo-inositol was calculated from the standard curves of appropriate components.
The data fitting was performed with NONMEM software (Version 7.3.0; ICON Development Solutions, Ellicot City, MD, USA) and the Gfortran compiler 9.0. NONMEM runs were executed using Wings for NONMEM (WFN730; http://wfn.sourceforge.net). The NONMEM data processing and plots were performed in Matlab Software (Version 0.1; The MathWorks, Natick, MA, USA). The schematic representation of the PK model is given in Figure 4. dA/dt=−ka∗AA(0)=DPO dX/dt=k−CL/F/V/F∗A+ka∗AX(0)=C0∗V/F where A and X denote the amount of myo-inositol in the absorption and central compartment, F denotes bioavailability, DPO denotes an oral dose of myo-inositol, ka denotes absorption rate constant, kin denotes an endogenous input of myo-inositol, CL denotes clearance, V denotes volume of distribution, and C0 denotes endogenous concentration of myo-inositol. CL and V were estimated as apparent due to uncertain bioavailability (CL/F and V/F). The steady-state concentration of myo-inositol implies the following relationship: k=C0∗CL/F
The concentration of myo-inositol in serum is given by: C=X/V/F
The observed concentrations (Cobs) were related to model predictions through the following equation (proportional residual error model): Cobs=C∗(1+ε) where ε is a normal random variable with standard deviation σ.

[4] = design: method as in PMID 32650579; conditions: cited from earlier work
[5] = test system: alkaline phosphatases from bovine intestinal mucosa; design: method as in doi:10.1016/S0928-0987(97)00019-5; conditions: bovine intestinal alkaline phosphatase; cited from earlier work
[6] = 100 mg/kg oral, male Wistar rats, liver

Compound: COC1[C@H](O)[C@H](O)C(O)[C@H](O)[C@H]1O (stereo partly drawn) [LB, L-(+)-bornesitol]
Effect on systolic blood pressure (systolic blood pressure): reduced the systolic blood pressure
Angiotensin-converting enzyme inhibition [1]: potent
Dose proportionality of peak concentration and AUC [2]: non-linear pharmacokinetics
Time to peak plasma concentration [2]: approximately 1 h
half-life [2]: 1.202 to 2.0615 h

Evidence of harm from the dosage during the study ([3]; Wistar rats): no significant evidence of harm
Time after which the level of MI started to drop ([3]; Wistar rats): 2 h
Time of highest peak of MI after administration ([3]; Wistar rats): 1 h
Serum level approximately after 24 h compared with before administration ([3]; Wistar rats, 24 h): still higher than before administration
k el ([3]; male, rat, serum, secondary parameter, Wistar rats, read-out: Kel, Elimination rate constant, (CL/F)/(V/F) (converted)): 4.72e-05 s⁻¹
half-life ([3]; male, rat, serum, secondary parameter, Wistar rats, read-out: T0.5, Biological half-life, ln(2)/kel (converted)): 4.08 h
Mean MI in Rat Serum ([3]; rat 1A (ID:1), group 1, times 0, 0.25, 0.5, 1, 24 h): 45.69 µg/mL
Mean MI in Rat Serum ([3]; rat 1B (ID:4), group 2, times 0, 2, 4, 8, 12, 24 h): 45.70 µg/mL
Mean MI in Rat Serum ([3]; rat 1C (ID:7), group 3, times 0, 1.5, 36, 48 h): 46.23 µg/mL
Mean MI in Rat Serum ([3]; rat 2A (ID:2), group 1, times 0, 0.25, 0.5, 1, 24 h): 60.00 µg/mL
Mean MI in Rat Serum ([3]; rat 2B (ID:5), group 2, times 0, 2, 4, 8, 12, 24 h): 46.23 µg/mL
Mean MI in Rat Serum ([3]; rat 2C (ID:8), group 3, times 0, 1.5, 36, 48 h): 49.38 µg/mL
Mean MI in Rat Serum ([3]; rat 3A (ID:3), group 1, times 0, 0.25, 0.5, 1, 24 h): 57.46 µg/mL
Mean MI in Rat Serum ([3]; rat 3B (ID:6), group 2, times 0, 2, 4, 8, 12, 24 h): 39.86 µg/mL
Mean MI in Rat Serum ([3]; rat 3C (ID:9), group 3, times 0, 1.5, 36, 48 h): 38.33 µg/mL
AUC, Area under concentration–time curve, F·D/CL ([3]; secondary parameter, Wistar rats): 2.34 mg·h/L/kg
Compound: O[C@H]1[C@H](O)[C@@H](O)[C@H](O)[C@@H](O)[C@H]1O [myo-inositol]

Compound: CO[C@H]1[C@H](O)[C@@H](O)[C@@H](O)[C@H](O)[C@@H]1O [DP, D-pinitol]
Time at which plasma DP level became detectable ([4]; 100 mg/kg oral, 18 h food-deprived male Wistar rats, plasma): 10 min
Time at which liver concentration became detectable [4, 6]: 30 min
Time of peak liver concentration [4, 6]: 120 min
Time of plasma peak ([4]; 100 mg/kg oral, male Wistar rats, plasma): 1 h
Time of peak in liver ([4]; 500 mg/kg oral, Wistar rats, liver): 120 min
Time of peak in plasma ([4]; 500 mg/kg oral, Wistar rats, plasma): 120 min
Accumulation in the liver ([4]; oral DP, Wistar rats, liver): no accumulation was detected
Half-life time, liver ([4]; oral DP, Wistar rats, liver): 2.57 h
Half-life time, plasma ([4]; oral DP, Wistar rats, plasma): 1.8 h
Time after which completely cleared ([4]; oral DP, Wistar rats): 6 h

Compound: O=P(O)(O)OC1[C@H](OP(=O)(O)O)[C@H](O)C(O)[C@H](O)[C@H]1OP(=O)(O)O (stereo partly drawn) [a-trinositol, d-myo-inositol 1,2,6-trisphosphate]
Dephosphorylation by intestinal enzymes [5]: extensive dephosphorylation
